From patent US20100209519A1, “PHARMACEUTICAL COMPOSITION FOR INHALATION DELIVERY AND FABRICATION METHOD THEREOF” (NATIONAL TAIWAN UNIVERSITY, priority 2009, published 2010)
Read-outs that look alike come from different tables or passages of the source.

Test system: A549 cells
Assay: CDDP in vitro anticancer activity assay (MTT)
Assay type: cell-based, human
Procedure: A549 cells were placed in a 96-well culture plat at a density of 5×10^4 cells per well in 0.1 ml of growth medium and cultured for 24 hours. […] The percentage of cell viability is illustrated as the ratio of the absorbance of treated cells relative to the absorbance of non-treated cells.

IC50 (48 hours, read-out: IC50 Value, 48 hours): 13.6 µM
IC50 (72 hours, read-out: IC50 Value, 72 hours): 5.2 µM
SMILES: [NH2][Pt]([NH2])([Cl])[Cl] [CDDP, Cisplatin]
